Legend:
[1] = test system: pain threshold to radiant heat on tail (rat tail flick); assay: Analgesic activity, rat tail flick (RTF); format: in vivo, rat (male Sprague-Dawley); settings: oral, 2 hours after dosing
Method: (§1) The compounds of this invention are useful as analgesic agents, tranquilizers, sedative-hypnotics and anticonvulsants. The compounds are effective at dosages generally of from 1 to 10 mg./kg. of body weight daily. The analgesic activity was established in the standard mouse writhing test [Whittle, Brit. J. Pharmacol., 22, 296 (1964)] and confirmed in the hot plate assay [Woolfe, G. and McDonald, A. J., J. Pharmacol, Exper. Therap., 80, 300 (1944)] and the rat tail flick test.
In testing for analgesic activity by the rat tail flick method described by [F. E. D'Amour and D. L. Smith, J Pharmcol. Exp. Ther. 72, 74 (1941)], the method was modified as follows. Groups of male Sprague-Dawley rats weighing 140-170 g. are prepared by blackening their tails with India ink. Radiant heat is focused on their tails and adjusted so that the normal pain threshholds (time in seconds until an escape response or tail flick occurs) are in the range of 8 to 10 seconds. This is followed by oral administration of the test compound and hourly measurements of the animals' pain threshholds. The analgesic effects are listed in Table I as percent increase over initial pain threshhold 2 hours after dosing, or ED50's.

[2] = test system: audiogenic seizure in mice; assay: Anticonvulsant activity, audiogenic seizure test (mouse); format: in vivo, mouse (male O'Grady strain); settings: 1 hr.; for Anticonvulsant activity, audiogenic seizure: % protection: 100 mg./kg.
Excerpt: Audiogenic Seizure Test (Mouse)
Male O'Grady strain mice (14 to 16 g.) especially bred for susceptibility to audiogenic seizures were used as subjects. The audiogenic apparatus consisted of a wooden box enclosing a metal container with two doorbells attached to the upper section. […] [Ref: N. P. Plotnikoff and D. M. Green, J, Pharmacol. Exp. Ther., 119, 294 (1957)].

[3] = test system: methamphetamine (Desoxyn)-induced motor activity; assay: Antipsychotic activity (Rat Desoxyn antagonism), motor activity; format: in vivo; settings: oral, one hour before test; for Antipsychotic activity (Rat Desoxyn antagonism): 10 mg./kg., methamphetamine 3 mg./kg. sc, vs. Desoxyn treated controls
Method: Antipsychotic Activity (Rat Desoxyn Antagonism)
Antipsychotic activity (Desoxyn antagonism) was evaluated in motor activity chambers equipped with photocells. Groups of nine rats were given the compound orally one hour before the test and then administered methamphetamine (Desoxyn) 3 mg./kg. sc, and placed in the chamber. Changes in motor activity were recorded as counts from the photocells and are compared to Desoxyn treated controls.

[4] = test system: acetic acid-induced writhing in mice; assay: Analgesic activity, acetic acid writhing test (W); format: in vivo, mouse (Swiss-Webster female)
Method: as §1
In testing for the analgesic effect of the present compounds, the acetic acid writhing test was made as that described by [B. A. Whittle, Brit. J. Pharmacol 22, 246 (1964)]. Groups of Swiss-Webster female mice were given oral doses of the drug or control vehicle. The use of the intravenous dye was eliminated. One hour later they were given 0.4 ml. of 0.5% HOAc intraperitoneally. The number of writhes occurring in 20 minutes were counted starting 5 minutes after the injection of HOAc. Analgesic activity was reported as percent inhibition of writhing vs. controls or as ED50%.

Compound	Analgesic activity, RTF: percent increase over initial pain threshhold ([1]; 40 mg./kg.)	Anticonvulsant activity, audiogenic seizure: % protection [2]	Antipsychotic activity (Rat Desoxyn antagonism) [3]	also measured
C=C(C)c1ccncc1-c1c(O)cc(C(C)C(C)CCCCC)cc1O (stereo not drawn) [Compound (VIII), 2-[4-Isopropenyl-3-Pyridyl]-5-(3-Methyl-2-Octyl) Resorcinol]	59%	100%		Antipsychotic activity (Rat Desoxyn antagonism), result in words ([3]; dose not stated): Inactive
C=C(C)c1ccncc1-c1c(OC(C)=O)cc(C(C)C(C)CCCCC)cc1OC(C)=O (stereo not drawn) [Compound (VII), 1,3-Diacetyl-2-[4-Isopropenyl-3-Pyridyl]-5-(3-Methyl-2-Octyl)Resorcinol]			66%	Analgesic activity, RTF: percent increase over initial pain threshhold ([1]; 20 mg./kg.): 23%; ED50 ([2]; Mus musculus, protection, estimated (est.)): ~9 mg/kg
CCCCCC(C)C(C)c1cc(OC(C)=O)c(-c2cnccc2C(C)C)c(OC(C)=O)c1 (stereo not drawn) [Compound (IX), 1,3-Diacetyl-2-[4-Isopropyl-3-Pyridyl]-5-(3-Methyl-2-Octyl)Resorcinol]	20%			Analgesic activity, W(PO): percent inhibition of writhing vs. controls ([4]; 80 mg./kg.): 30%
CCCCCC(C)C(C)c1cc(O)c(-c2cnccc2C(C)C)c(O)c1 (stereo not drawn) [Compound (X), 2-[4-Isopropyl-3-pyridyl]-5-(3-methyl-2-octyl)resorcinol]	53%	60%		ED50 ([4]; Mus musculus, po): 44 mg/kg
CCCCCC(C)C(C)c1cc(O)c(-c2cc(C)ccc2C(C)C)c(O)c1 (stereo not drawn) [Compound (XII), 2-[(2-Isopropyl-5-methyl)phenyl]-5-(3-methyl-2-octyl)resorcinol]		60%	77%	Analgesic activity, W(PO): percent inhibition of writhing vs. controls ([4]; 40 mg./kg.): 47%; Analgesic activity, RTF: percent increase over initial pain threshhold ([1]; 22 mg./kg.): 45%
C=C(C)c1ccc(C)cc1-c1c(OC(C)=O)cc(C(C)C(C)CCCCC)cc1OC(C)=O (stereo not drawn) [Compound (XI), 1,3-Diacetyl-2-[(2-isopropenyl-5-methyl)phenyl]-5-(3-methyl-2-octyl)resorcinol]		70%	55%	Analgesic activity, W(PO): percent inhibition of writhing vs. controls ([4]; 10-40 mg./kg.): 40-50%

Reference: patent US4018777A, “2-Substituted-5-alkyl resorcinols” (Abbott Laboratories, priority 1975, dated 1977)
